Reference: ChEMBL document CHEMBL1201862, “PubChem BioAssay data set” (2004)
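48-hour exposure; five concentrations; linearly interpolated endpoints. GI50 marks 50% less growth.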 Calls of active or inactive are those of the source. Rule as the data show it: active = GI50 up to about 1.1 µM and inactive = higher.

Columns and labels:
Assay in all cases: NCI anticancer screen, dose series, 48 h
DLD-1 = system: DLD-1
DMS-273 = system: DMS-273
HOP-18 = system: HOP-18
KM-20L2 = system: KM-20L2
LXFL 529 = system: LXFL 529
M19-MEL = system: M19-MEL
RXF 631 = system: RXF 631
SNB-78 = system: SNB-78
XF498 = system: XF498

Measured: GI50

COC(=O)C(CCCC1(c2ccccc2)OCCO1)C(C)=O (stereo not drawn)
inactive: DLD-1 > 100 µM | DMS-273 > 100 µM | HOP-18 > 100 µM | KM-20L2 > 100 µM | LXFL 529 > 100 µM | M19-MEL > 100 µM | RXF 631 > 100 µM | SNB-78 > 100 µM | XF498 > 100 µM

COc1cc2[nH]c3c(c2cc1OC)CCN[C@@]31CC[C@@]2(CC3c4c(cc(OC)c(O)c42)CCN3C)C[C@@H]1OC (stereo partly drawn)
inactive: DLD-1 53 µM | DMS-273 41.2 µM | HOP-18 > 38.7 µM | KM-20L2 34 µM | LXFL 529 40.1 µM | M19-MEL 19.4 µM | RXF 631 7.78 µM | SNB-78 > 85.3 µM | XF498 17.1 µM
